According to PubChem BioAssay AID1919015 (Molecular Pharmacology Branch, DTP, NCI, 2023):
Values joined by “and” are separate entries in the source; they are usually repeats but may differ in a detail not shown here. Identical values can stand only once.

System: OVCAR-5 complex spheroids with HUVEC/MSC, viability, % test/control
Assay: Anticancer human tumor OVCAR-5 cell line growth inhibition [AhR];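 note: spheroids exposed to compounds for 7 days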;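 for viability, T/C: 100% = DMSO vehicle control wells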
Conditions: for viability, T/C: stronger effect = lower value
In short: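 Agents were dosed in half-log steps down from roughly clinical Cmax, or from 10 microM where Cmax was unknown, alone and with AhR antagonists. Read-out: percent test/control growth of tumor spheroids containing HUVEC and MSC stromal cells.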

[1] = curve of first compound, second compound 0.1 µM
[2] = curve of first compound, second compound 0.316 µM
[3] = curve of first compound, second compound 1 µM
[4] = curve of first compound, second compound 3.16 µM
[5] = curve of first compound, second compound 10 µM
[6] = second compound 0.1 µM, first compound 0.00316 µM
[7] = second compound 0.1 µM, first compound 0.01 µM
[8] = second compound 0.1 µM, first compound 0.0316 µM
[9] = second compound 0.1 µM, first compound 0.1 µM
[10] = second compound 0.1 µM, first compound 0.316 µM
[11] = second compound 0.1 µM, first compound 1 µM
[12] = second compound 0.316 µM, first compound 0.00316 µM
[13] = second compound 0.316 µM, first compound 0.01 µM
[14] = second compound 0.316 µM, first compound 0.0316 µM
[15] = second compound 0.316 µM, first compound 0.1 µM
[16] = second compound 0.316 µM, first compound 0.316 µM
[17] = second compound 0.316 µM, first compound 1 µM
[18] = second compound 1 µM, first compound 0.00316 µM
[19] = second compound 1 µM, first compound 0.01 µM
[20] = second compound 1 µM, first compound 0.0316 µM
[21] = second compound 1 µM, first compound 0.1 µM
[22] = second compound 1 µM, first compound 0.316 µM
[23] = second compound 1 µM, first compound 1 µM
[24] = second compound 3.16 µM, first compound 0.00316 µM
[25] = second compound 3.16 µM, first compound 0.01 µM
[26] = second compound 3.16 µM, first compound 0.0316 µM
[27] = second compound 3.16 µM, first compound 0.1 µM
[28] = second compound 3.16 µM, first compound 0.316 µM
[29] = second compound 3.16 µM, first compound 1 µM
[30] = second compound 10 µM, first compound 0.00316 µM
[31] = second compound 10 µM, first compound 0.01 µM
[32] = second compound 10 µM, first compound 0.0316 µM
[33] = second compound 10 µM, first compound 0.1 µM
[34] = second compound 10 µM, first compound 0.316 µM
[35] = second compound 10 µM, first compound 1 µM

## CC1COCCN1c1cc(-c2ccnn2C)c2ccnc(-c3ccn[nH]3)c2n1 (configuration not stated)
Compound 0.00316 µM
  viability, T/C: 105% and 103% and 102%
Compound 0.01 µM
  viability, T/C: 103% and 101% and 105%
Compound 0.0316 µM
  viability, T/C: 102% and 95.4% and 103%
Compound 0.1 µM
  viability, T/C: 84.8% and 79.3% and 79.7%
Compound 0.316 µM
  viability, T/C: 47.3% and 38.3% and 41.1%
Compound 1 µM
  viability, T/C: 30.7% and 25.6% and 26.6%
Curve of compound
  IC50: 290 nM and 229 nM and 240 nM

## CCN(c1cc(-c2ccc(CN3CCOCC3)cc2)cc(C(=O)NCc2c(C)cc(C)[nH]c2=O)c1C)C1CCOCC1
Compound 0.00949 µM
  viability, T/C: 104% (2×) and 101%
Compound 0.03 µM
  viability, T/C: 105% and 98.5% and 106%
Compound 0.0949 µM
  viability, T/C: 99.6% and 99.7% and 103%
Compound 0.3 µM
  viability, T/C: 101% and 100% and 105%
Compound 0.949 µM
  viability, T/C: 99.6% and 96.8% and 104%
Compound 3 µM
  viability, T/C: 101% and 96.4% and 104%
Curve of compound
  IC50: > 3000 nM

## CC(CO)NC(=O)c1cc(-c2ccc(Cl)cc2)nn(-c2cnn(C)c2)c1=O (configuration not stated)
Compound 0.1 µM
  viability, T/C: 107% [middle of 20 runs]
Compound 0.316 µM
  viability, T/C: 108% [middle of 21 runs]
Compound 1 µM
  viability, T/C: 114% [middle of 21 runs]
Compound 3.16 µM
  viability, T/C: 103% [middle of 19 runs]
Compound 10 µM
  viability, T/C: 98.4% [middle of 19 runs]
Compound alone, run of 08/08/2022
  IC50: > 10000 nM

## CC1COCCN1c1cc(-c2ccnn2C)c2ccnc(-c3ccn[nH]3)c2n1 (configuration not stated) + CC(CO)NC(=O)c1cc(-c2ccc(Cl)cc2)nn(-c2cnn(C)c2)c1=O
[1]
  IC50: 281 nM
[2]
  IC50: 276 nM
[3]
  IC50: 297 nM
[4]
  IC50: 207 nM
[5]
  IC50: 95.8 nM
[6]
  viability, T/C: 111%
[7]
  viability, T/C: 111%
[8]
  viability, T/C: 110%
[9]
  viability, T/C: 87%
[10]
  viability, T/C: 46.2%
[11]
  viability, T/C: 30.8%
[12]
  viability, T/C: 111%
[13]
  viability, T/C: 113%
[14]
  viability, T/C: 109%
[15]
  viability, T/C: 87%
[16]
  viability, T/C: 45.1%
[17]
  viability, T/C: 32.1%
[18]
  viability, T/C: 119%
[19]
  viability, T/C: 121%
[20]
  viability, T/C: 118%
[21]
  viability, T/C: 89%
[22]
  viability, T/C: 48.6%
[23]
  viability, T/C: 35.4%
[24]
  viability, T/C: 106%
[25]
  viability, T/C: 115%
[26]
  viability, T/C: 102%
[27]
  viability, T/C: 67.6%
[28]
  viability, T/C: 40.3%
[29]
  viability, T/C: 35%
[30]
  viability, T/C: 99.7%
[31]
  viability, T/C: 103%
[32]
  viability, T/C: 83.9%
[33]
  viability, T/C: 49%
[34]
  viability, T/C: 35.5%
[35]
  viability, T/C: 33.5%

## COc1cc(Nc2ncc3c(n2)-c2ccc(Cl)cc2C(c2c(F)cccc2OC)=NC3)ccc1C(=O)O
Compound 0.0316 µM
  viability, T/C: 88% and 84.9% and 84.8%
Compound 0.1 µM
  viability, T/C: 79.3% and 80.2% and 76.8%
Compound 0.316 µM
  viability, T/C: 61.4% and 57.7% and 55.4%
Compound 1 µM
  viability, T/C: 58.3% and 55.7% and 50.5%
Compound 3.16 µM
  viability, T/C: 51.2% and 49.3% and 47%
Compound 10 µM
  viability, T/C: 42.7% and 41.6% and 39.5%
Curve of compound
  IC50: 2920 nM and 1770 nM and 1250 nM

## CC1COCCN1c1cc(-c2ccnn2C)c2ccnc(-c3ccn[nH]3)c2n1 (configuration not stated) + Cc1cncc(-c2nc(NCCc3c[nH]c4ccccc34)c3ncn(C(C)C)c3n2)c1
[1]
  IC50: 273 nM
[2]
  IC50: 282 nM
[3]
  IC50: 265 nM
[4]
  IC50: 183 nM
[5]
  IC50: < 3.16 nM
[6]
  viability, T/C: 107%
[7]
  viability, T/C: 103%
[8]
  viability, T/C: 103%
[9]
  viability, T/C: 83%
[10]
  viability, T/C: 45.2%
[11]
  viability, T/C: 32.9%
[12]
  viability, T/C: 106%
[13]
  viability, T/C: 104%
[14]
  viability, T/C: 105%
[15]
  viability, T/C: 85%
[16]
  viability, T/C: 46.3%
[17]
  viability, T/C: 32.9%
[18]
  viability, T/C: 97.3%
[19]
  viability, T/C: 99.2%
[20]
  viability, T/C: 100%
[21]
  viability, T/C: 78.2%
[22]
  viability, T/C: 45.6%
[23]
  viability, T/C: 33.9%
[24]
  viability, T/C: 80.8%
[25]
  viability, T/C: 87.4%
[26]
  viability, T/C: 84.2%
[27]
  viability, T/C: 65.2%
[28]
  viability, T/C: 36.5%
[29]
  viability, T/C: 30.1%
[30]
  viability, T/C: 12.8%
[31]
  viability, T/C: 12.8%
[32]
  viability, T/C: 13.7%
[33]
  viability, T/C: 10.6%
[34]
  viability, T/C: 6.62%
[35]
  viability, T/C: 7.97%
